# According to ChEMBL document CHEMBL5346962, “Discovery of Sulanemadlin (ALRN-6924), the First Cell-Permeating, Stabilized α-Helical Peptide in Clinical Development” (J Med Chem, 2023):
# The source made the active and inactive calls. The rule behind the calls is not given here.
# Columns and labels:
# [1] = Plasma protein binding in monkey at 250 uM; format: ADME, cell-free, Macaca mulatta; settings: rhesus monkey, read-out: PPB (converted)
# [2] = AUC (all) in rat at 5 mg/kg by LC-MS/MS analysis; format: ADME, organism-based; design: dose 5 mg/kg; settings: in vivo
# Mus musculus [3] = experiment: Protection against topotecan-induced crypt loss in gastrointestinal tract of C57BL/6 mouse at 2.4 mg/kg administered on day 0 to 4 and co-administered 30 mins prior to topotecan on day 1 to 4 followed by topotecan administration on day 5 measured on day 9 by H&E staining based analysis; format: functional, organism-based; settings: time 9.0 day
# [4] = Half life in rat at 2.5 mg/kg by LC-MS/MS analysis; format: ADME, organism-based; settings: in vivo
# [5] = Half life in rat at 5 mg/kg by LC-MS/MS analysis; format: ADME, organism-based; settings: in vivo
# MV4-11 = experiment: Antitumor activity against human MV4-11 cells xenografted in athymic nu/nu mouse model of AML assessed as tumor growth inhibition; format: functional, cell-based
# [6] = AUC (all) in rat at 2.5 mg/kg by LC-MS/MS analysis; format: ADME, organism-based; design: dose 2.5 mg/kg; settings: in vivo
# [7] = Plasma protein binding in human at 250 uM; format: ADME, cell-free; settings: read-out: PPB (converted)
# [8] = Plasma protein binding in rat at 2 to 50 uM; format: ADME, cell-free; settings: dose 2-50 µM, read-out: PPB (converted)
# [9] = Induction of cell cycle arrest in human CD34+ cells at 1 uM incubated for 24 hrs followed by compound wash-out and addition of fresh-medium containing compounds measured after 24 hrs by flow cytometry; format: toxicity, cell-based; settings: cd34-positive (myeloid/lymphoid) cell, 48 h
# [10] = AUC (0 to 24 hrs) in tumor of athymic nu/nu mouse xenografted with human SJSA-1 cells at 25 mg/kg, iv measured for 24 hrs by LC-MS-MS analysis; format: ADME, organism-based, Neoplasm; design: dose 25 mg/kg, time 24 hrs, route iv; settings: in vivo
# Bone marrow cell [11] = experiment: Upregulation of Noxa mRNA level in bone marrow cells of C57BL/6 mouse at 10 mg/kg, iv measured for 24 hrs by qRT-PCR analysis; format: functional, organism-based
# [12] = Toxicity in rat assessed as NOAEL administered twice weekly for 4 weeks; settings: in vivo
# [13] = Plasma protein binding in monkey at 2 to 50 uM; format: ADME, cell-free, Macaca mulatta; settings: rhesus monkey, dose 2-50 µM, read-out: PPB (converted)
# [14] = Plasma protein binding in human at 2 to 50 uM; format: ADME, cell-free; settings: dose 2-50 µM, read-out: PPB (converted)
# Bone marrow cell [15] = experiment: Downregulation of Ki67 expression level in bone marrow cells of C57BL/6 mouse at 2.4 mg/kg, iv administered every 8 hrs measured for 16 hrs by immunohistochemical analysis; format: functional, organism-based
# [16] = Clearance in rat at 2.5 mg/kg by LC-MS/MS analysis; format: ADME, organism-based; settings: in vivo
# [17] = Induction of cell cycle arrest in human CD34+ cells assessed as accumulation at S phase at 5 uM incubated for 24 hrs by flow cytometry (reference value: 27.5 +/- 5.8%); format: toxicity, cell-based; settings: cd34-positive (myeloid/lymphoid) cell
# Fibroblast [18] = experiment: Protection against chemotherapy-induced apoptosis in human fibroblast assessed as decrease in caspase-3/7 level preincubated for 16 hrs followed by carboplatin addition measured after 32 hrs; format: functional, cell-based; settings: dose 4.6-10 µM, time 48.0 hrs
# [19] = Clearance in cynomolgous monkey at 5 mg/kg by LC-MS/MS analysis; format: ADME, organism-based, Macaca fascicularis; settings: cynomolgus monkey, in vivo
# [20] = Induction of cell cycle arrest in human CD34+ cells assessed as accumulation at S phase at 1 uM incubated for 24 hrs by flow cytometry (reference value: 27.5 +/- 5.8%); format: toxicity, cell-based; settings: cd34-positive (myeloid/lymphoid) cell
# SJSA-1 = experiment: Antitumor activity against human SJSA-1 cells xenografted in athymic nu/nu mouse […] assessed as tumor growth inhibition administered intravenously thrice a week measured for 15 days; format: functional, cell-based; settings: dose 13.3 mg/kg, route iv, time 15.0 day
# [21] = Plasma protein binding in human assessed as unbound fraction at >200 uM; format: ADME, cell-free
# Bone marrow cell [22] = experiment: Downregulation of cPARP expression level in bone marrow cells of C57BL/6 mouse at 2.4 mg/kg, iv administered every 8 hrs measured for 16 hrs by immunohistochemical analysis; format: functional, organism-based
# [23] = Toxicity in monkey assessed as NOAEL administered twice weekly for 4 weeks; design: species or system Macaca mulatta; settings: rhesus monkey, in vivo
# [24] = Clearance in cynomolgous monkey at 10 mg/kg by LC-MS/MS analysis; format: ADME, organism-based, Macaca fascicularis; settings: cynomolgus monkey, in vivo
# MCF7 [25] = experiment: Antitumor activity against human MCF7 cells xenografted in athymic nude BALB/c mouse assessed as decrease in BrdU incorporation at 20 mg/kg, iv by immunohistochemical analysis; format: functional, organism-based; settings: time <= 48.0 hrs, TDE = time-dependent effect
# [26] = Drug uptake in plasma of athymic nu/nu mouse xenografted with human SJSA-1 cells assessed as half life of metabolite ALRN-8714 at 25 mg/kg, iv measured for 24 hrs by LC-MS-MS analysis; format: ADME, organism-based; settings: in vivo
# [27] = Induction of cell cycle arrest in human CD34+ cells assessed as accumulation at S phase at 0.1 uM incubated for 24 hrs by flow cytometry (reference value: 27.5 +/- 5.8%); format: toxicity, cell-based; settings: cd34-positive (myeloid/lymphoid) cell
# [28] = Half life in cynomolgous monkey at 5 mg/kg by LC-MS/MS analysis; format: ADME, organism-based, Macaca fascicularis; settings: cynomolgus monkey, in vivo
# [29] = Induction of cell cycle arrest in human CD34+ cells assessed as accumulation at S phase at 2.5 uM incubated for 24 hrs by flow cytometry (reference value: 27.5 +/- 5.8%); format: toxicity, cell-based; settings: cd34-positive (myeloid/lymphoid) cell
# BT-474 = experiment: […] chemotherapy-induced apoptosis in human BT-474 cells assessed as decrease in caspase-3/7 level at 4.6 to 10 uM preincubated for 16 hrs followed by paclitaxel addition measured after 32 hrs; format: functional, cell-based; settings: dose 4.6-10 µM, time 48.0 hrs
# Fibroblast [30] = experiment: Protection against chemotherapy-induced apoptosis in human fibroblast assessed as decrease in caspase-3/7 level preincubated for 16 hrs followed by oxaliplatin addition measured after 32 hrs; format: functional, cell-based; settings: dose 4.6-10 µM, time 48.0 hrs
# [31] = Clearance in mouse at 5 mg/kg by LC-MS/MS analysis; format: ADME, organism-based; settings: in vivo
# MC-38 = experiment: Antitumor activity against mouse MC38 cells allografted in C57BL/6 mouse assessed as reduction in tumor volume at 8 mg/kg administered on day 0 to 4 and co-administered 30 mins prior to topotecan on day 1 to 4 followed by topotecan administration on day 5 measured for 40 days; format: functional, organism-based; settings: time 40.0 day
# Mus musculus [32] = experiment: Protection against topotecan-induced epithelium hyperplasia in gastrointestinal tract of C57BL/6 mouse at 2.4 mg/kg administered on day 0 to 4 and co-administered 30 mins prior to topotecan on day 1 to 4 followed by topotecan administration on day 5 measured on day 9 by H&E staining based analysis; format: functional, organism-based; settings: time 9.0 day
# MCF7 [33] = experiment: Antitumor activity against human MCF7 cells xenografted in athymic nu/nu mouse […] assessed as tumor growth inhibition administered intravenously twice a week measured for 30 days; format: functional, cell-based; settings: dose 5-20 mg/kg, route iv, time 30.0 day
# Bone marrow cell [34] = experiment: Upregulation of serum MIC-1 level […] of C57BL/6 mouse at 2.4 mg/kg, iv administered every 8 hrs measured for 24 hrs by ELISA method; format: functional, organism-based
# [35] = Half life in rat at 10 mg/kg by LC-MS/MS analysis; format: ADME, organism-based; settings: in vivo
# Mus musculus [36] = experiment: Upregulation of p21 expression level in gastrointestinal tract of C57BL/6 mouse at 2.4 mg/kg, iv administered every 8 hrs measured for 16 hrs by immunohistochemical analysis; format: functional, organism-based
structure (smiles),measurement,setting,value
CC(=O)N[C@@H](CC(C)C)C(=O)N[C@H](C(=O)N[C@@H](Cc1ccccc1)C(=O)N[C@]1(C)CCCCCC/C=C/CCC[C@@](C)(C(=O)N[C@@H](C)C(=O)N[C@@H](C)C(=O)N[C@@H](C)C(=O)N[C@@H](C)C(=O)N[C@@H](C)C(=O)N[C@H](C)C(N)=O)NC(=O)[C@H](CC(C)C)NC(=O)[C@H](CCC(N)=O)NC(=O)[C@H](C)NC(=O)[C@H](Cc2c[nH]c3ccccc23)NC(=O)[C@H](Cc2ccc(O)cc2)NC(=O)[C@H](CCC(=O)O)NC1=O)[C@@H](C)O,fraction unbound at 250 µM,[1],0.12
same,AUC,[2],223 µg·h/mL
same,Activity,Mus musculus [3],Active
same,half-life,[4],1.4 h
same,half-life,[5],2 h
same,Activity,MV4-11,Dose-Dependent Effect
same,AUC,[6],90.5 µg·h/mL
same,fraction unbound at 250 µM,[7],0.19
same,fraction unbound at up to 50 µM,[8],0.08
same,Activity,[9],Non-Toxic
same,AUC,[10],1 µg·h/g
same,Activity,Bone marrow cell [11],Active
same,NOAEL at 672 h,[12],2.5 mg/kg
same,fraction unbound at up to 50 µM,[13],0.08
same,fraction unbound at up to 50 µM,[14],0.08
same,Activity,Bone marrow cell [15],Active
same,clearance,[16],0.467 mL/min/kg
same,Activity,[17],0.22%
same,Activity,Fibroblast [18],Dose-Dependent Effect
same,clearance,[19],0.0983 mL/min/kg
same,Activity,[20],4.23%
same,Activity,SJSA-1,Dose-Dependent Effect
same,fraction unbound,[21],0.12
same,Activity,Bone marrow cell [22],Active
same,NOAEL at 672 h,[23],5 mg/kg
same,clearance,[24],0.127 mL/min/kg
same,Activity,MCF7 [25],Tde
same,t1/2,[26],8.4 h
same,Activity,[27],21.35%
same,half-life,[28],4.9 h
same,Activity,[29],0.5%
same,Activity,BT-474,inactive
same,Activity,Fibroblast [30],Dose-Dependent Effect
same,clearance,[31],0.183 mL/min/kg
same,Activity,MC-38,Active
same,Activity,Mus musculus [32],Active
same,Activity,MCF7 [33],Dose-Dependent Effect
same,Activity,Bone marrow cell [34],Active
same,half-life,[35],3.8 h
same,Activity,Mus musculus [36],Active
